Source: patent US10183936B2, “Hepatitis B core protein allosteric modulators” (priority 2014, dated 2019)

Tests used:
AD38 cells = assay: Viability of AD38 cells (Promega CellTiter-Glo) at the end of compound treatment; type: cell-based; conditions: 10 μM compound, 6 days, luminescence normalized against DMSO control wells (controls being 100%)
Description: (§1) Example 56: Assay Measuring Activity of Compounds on Viral Production in and on Viability of AD38 Cells
(§2) AD38 cells were then re-suspended with 10 mL of Treatment Medium and counted. Wells of a collagen coated 96-well NUNC microtiter plate were seeded at 50,000/well in 180 μL of Treatment Medium, and 20 μL of in treatment media with either 10% DMSO (Control) or a 10× solution of compound in 10% DMSO was added. Plates were incubated for 6 days at 37° C.
At the end of compound treatment period cell viability was assessed using a Promega CellTiter-Glo protocol. All supernatant was removed the previously treated 96-well microtiter plate, and 50 μL Tetracycline-free treatment medium (DMEM/F12 (1:1), lx Pen/step (cat#: 30-002-CL, Mediatech, Inc), with 2% FBS, Tet-system approved (cat#: 631106, Clontech), and 1% DMSO was added back to each well. Another 50 μL of CellTiter-Glo reagent solution (Promega, G7573) was then added at room temperature and the contents mixed for 2 minutes on an orbital shaker to induce cell lysis. This was followed by incubation at room temperature for 10 minutes to stabilize the luminescent signal. The luminescence was recorded for 0.2 seconds per well on a Tecan multimode platereader (Infinite M1000 pro). The luminescent signal from each well was normalized against that of untreated (DMSO) control wells. All results were reported percent viability (with controls being 100%).

[1] = tested on: HBV viral production in AD38 cells; assay: Viral load production in AD38 cells by quantitative PCR of the HBV core sequence in supernatant; type: cell-based; conditions: Hepatitis B virus, 144 h; 10 μM compound, 6 days at 37° C., viral load in supernatant compared against DMSO control wells; read-out: AD38 Viral Load (CpAM/DMSO %) at 10 μM
Description: as §1, §2
Viral load production was assayed by quantitative PCR of the core sequence. Briefly, 5 μL of clarified supematant was added to a PCR reaction mixture that contained forward primers HBV-f 5′-CTGTGCCTTGGGTGGCTTT-3′, Reverse primers HBV-r 5′-[…]-3′ and Fluorescent TaqMan™ Probes HBV-probe 5′-FAM/AGCTCCAAA/ZEN/[…]/3IABkFQ-3′ in Quanta Biosciences PerfeCTa® qPCR Toughmix®, and was subsequently on an Applied Biosystems VIIA7 in a final volume of 20 μL. The PCR mixture was incubated at 45° C. for 5 minutes, then 95° C. for 10 min, followed by 40 cycles of 10 seconds at 95° C. and 20 seconds at 60° C. Viral load was quantitated against known standards by using ViiA™ 7 Software. Viral load in the supematant from wells with treated cells were compared against viral load in supernatant from DMSO control wells (≥3 per plate).

| SMILES | AD38 Viability Normalized Result (CPAM/DMSO %) at 10 μM (AD38 cells) [%] | activity at 10 µM [1] [%] |
| --- | --- | --- |
| CN(C)c1ccccc1CNC(=O)c1ccc2c(c1)NC(=O)c1ccccc1S2 [Compound 1227] | 92 | 10 |
| O=C(Nc1ccccc1O)c1ccc2c(c1)NC(=O)c1ccccc1S2 [Compound 1229] | 76 | 45 |
| O=C(Nc1ccccn1)c1ccc2c(c1)NC(=O)c1ccccc1S2 [Compound 1230] | 102 | 46 |
| O=C(Nc1cccnc1)c1ccc2c(c1)NC(=O)c1ccccc1S2 [Compound 1231] | 93 | 12 |
| O=C(NCc1ccccc1OC(F)(F)F)c1ccc2c(c1)NC(=O)c1ccccc1S2 [Compound 1232] | 94 | 42 |
| O=C(NCc1cncnc1)c1ccc2c(c1)NC(=O)c1ccccc1S2 [Compound 1233] | 93 | 1 |
| O=C(NCCC1CCCCC1)c1ccc2c(c1)NC(=O)c1ccc(F)cc1S2 [Compound 1234] | 79 | 3 |
| O=C(NCCC1CCCCC1)c1ccc2c(c1)NC(=O)c1cc(Cl)ccc1S2 [Compound 1235] | 61 | 6 |
| O=C(NCCC1CCCCC1)c1ccc2c(c1)NC(=O)c1ccncc1S2 [Compound 1237] | 66 | 4 |
| COC(C)(C)CCNC(=O)c1ccc2c(c1)NC(=O)c1ccccc1S2 [Compound 1238] | 104 | 26 |
| CNc1ccccc1CNC(=O)c1ccc2c(c1)NC(=O)c1ccccc1S2 [Compound 1239, N-(2-(methylamino)benzyl)-11-oxo-10, 11-dihydrodibenzo [b,f] [1,4] thiazepine-8-carboxamide] | 106 | 33 |
| O=C(NCc1ccccc1N1CCCC1)c1ccc2c(c1)NC(=O)c1ccccc1S2 [Compound 1240] | 92 | 26 |
| O=C(NCCCOc1ccccc1)c1ccc2c(c1)NC(=O)c1ccccc1S2 [Compound 1241] | 86 | 12 |
| CC(=O)Nc1ccccc1NC(=O)c1ccc2c(c1)NC(=O)c1ccccc1S2 [Compound 1242] | 78 | 91 |
| CC(=O)Nc1cccc(NC(=O)c2ccc3c(c2)NC(=O)c2ccccc2S3)c1 [Compound 1243] | 118 | 20 |
| O=C(NCCC1CCNCC1)c1ccc2c(c1)NC(=O)c1ccccc1S2 [Compound 1244, 11-oxo-N-(2-(piperidin-4-yl)ethyl)-10, 11-dihydrodibenzo [b,f] [1,4] thiazepine-8-carboxamide] | 103 | 14 |
| O=C(NCc1cncs1)c1ccc2c(c1)NC(=O)c1ccccc1S2 [Compound 1245] | 101 | 1 |
| O=C(NCCc1cnco1)c1ccc2c(c1)NC(=O)c1ccccc1S2 [Compound 1246] | 96 | 6 |
| O=C(NCCc1cncs1)c1ccc2c(c1)NC(=O)c1ccccc1S2 [Compound 1247] | 103 | 8 |
| O=C(NCCc1ccc(-n2ccnc2)cc1)c1ccc2c(c1)NC(=O)c1ccccc1S2 [Compound 1248] | 106 | 3 |

| SMILES | AD38 Viability Normalized Result (CPAM/DMSO %) at 10 μM (AD38 cells) [%] | activity at 10 µM [1] [%] |
| --- | --- | --- |
| O=C(NCCc1ccc(-n2cncn2)cc1)c1ccc2c(c1)NC(=O)c1ccccc1S2 [Compound 1249] | 108 | 34 |
| O=C(NCCC1CCCCC1)c1ccc2c(c1)NC(=O)c1ccc(Cl)cc1S2 [Compound 1250] | 113 | 14 |
| O=C(NCC(c1ccccc1)N1CCCC1)c1ccc2c(c1)NC(=O)c1ccccc1S2 (stereo not drawn) [Compound 1251] | 99 | 8 |
| O=C(NCCC(c1ccccc1)N1CCCC1)c1ccc2c(c1)NC(=O)c1ccccc1S2 (stereo not drawn) [Compound 1252] | 94 | 14 |
| CC(=O)Nc1ccccc1CNC(=O)c1ccc2c(c1)NC(=O)c1ccccc1S2 [Compound 1253] | 103 | 15 |
| O=C(NCCc1ccc(-n2nccn2)cc1)c1ccc2c(c1)NC(=O)c1ccccc1S2 [Compound 1256] | 102 | 1 |
| O=C(NCCC1CCCCC1)c1ccc2c(c1)NC(=O)c1cnccc1S2 [Compound 1257] | 113 | 26 |
| O=C(NC[C@H](CO)c1ccccc1)c1ccc2c(c1)NC(=O)c1ccccc1S2 [Compound 1258] | 105 | 12 |
| O=C(NC[C@@H](CO)c1ccccc1)c1ccc2c(c1)NC(=O)c1ccccc1S2 [Compound 1259] | 84 | 11 |
| CCc1cccc(CCNC(=O)c2ccc3c(c2)NC(=O)c2ccccc2S3)c1 [Compound 1260] | 100 | 8 |
| O=C(NCc1cnco1)c1ccc2c(c1)NC(=O)c1ccccc1S2 [Compound 1264] | 104 | 8 |
| O=C(NCCc1ccc(-n2ccnn2)cc1)c1ccc2c(c1)NC(=O)c1ccccc1S2 [Compound 1266] | 74 | 1 |
| O=C(NCCc1ccc(-n2cnnc2)cc1)c1ccc2c(c1)NC(=O)c1ccccc1S2 [Compound 1267] | 93 | 77 |
| O=C(NC[C@H](C(=O)O)c1ccccc1)c1ccc2c(c1)NC(=O)c1ccccc1S2 [Compound 1268, (R)-3-(11-oxo-10, 11-dihydrodibenzo [b,f] [1,4]thiazepine-8-carboxamido)-2-phenylpropanoic acid] | 106 | 77 |
| O=C(NC[C@@H](C(=O)O)c1ccccc1)c1ccc2c(c1)NC(=O)c1ccccc1S2 [Compound 1269, (S)-3-(11-oxo-10, 11-dihydrodibenzo [b,f] [1,4]thiazepine-8-carboxamido)-2-phenylpropanoic acid] | 107 | 63 |
| O=C(NCCc1cc[nH]n1)c1ccc2c(c1)NC(=O)c1ccccc1S2 [Compound 1270] | 94 | 1 |
| COc1ccc2c(c1)Sc1ccc(C(=O)NCCC3CCCCC3)cc1NC2=O [Compound 1271] | 100 | 6 |
| COc1ccc2c(c1)C(=O)Nc1cc(C(=O)NCCC3CCCCC3)ccc1S2 [Compound 1272] | 102 | 24 |
| Cc1ccc2c(c1)Sc1ccc(C(=O)NCCC3CCCCC3)cc1NC2=O [Compound 1273] | 96 | 6 |
